# Laboratory results from patent US10577361B2, “Dopamine D3 receptor antagonists having a morpholine moiety” (Indivior UK Limited, priority 2015, dated 2020).
# Counter-ions that a name gives are not always drawn.
# Columns and labels:
# [1] = molecular target: T1, human dopamine receptor type 2, long variant (hD2L) (Homo sapiens (Human), UniProt P14416); experiment: Functional calcium assay at hD2 recombinant receptor (CHO-Gα16-hD2L cells, FLIPR); format: cell-based; conditions: functional pKi at hD2, dopamine EC80 challenge; for Ki: read-out: D2 fp Ki (converted)
# Method: Functional Calcium Assay at hD2 Recombinant Receptor CHO cells stably expressing human dopamine receptor type 2, long variant (hD2L), coupled to Gα16 protein (CHO-Gα16-hD2L) were seeded into black walled clear-base 384-well plates at a density of 8,000 cells per well and grown overnight at 37° C. […] Compounds of invention were dissolved in DMSO and 200-fold diluted with assay buffer plus 0.01% Pluronic F-127. […] The fluorescence before compound addition (baseline) and before and after addition of agonist challenge was monitored.
# [2] = molecular target: human dopamine type 3 receptor (hD3) (Homo sapiens (Human), UniProt P35462); experiment: [3H]-Spiperone binding assay at hD3 recombinant receptor (CHO-hD3 membranes); conditions: pKi only estimated to be accurate to about ±0.3-0.5
# Sequence of human dopamine type 3 receptor (hD3) (P35462 whole entry): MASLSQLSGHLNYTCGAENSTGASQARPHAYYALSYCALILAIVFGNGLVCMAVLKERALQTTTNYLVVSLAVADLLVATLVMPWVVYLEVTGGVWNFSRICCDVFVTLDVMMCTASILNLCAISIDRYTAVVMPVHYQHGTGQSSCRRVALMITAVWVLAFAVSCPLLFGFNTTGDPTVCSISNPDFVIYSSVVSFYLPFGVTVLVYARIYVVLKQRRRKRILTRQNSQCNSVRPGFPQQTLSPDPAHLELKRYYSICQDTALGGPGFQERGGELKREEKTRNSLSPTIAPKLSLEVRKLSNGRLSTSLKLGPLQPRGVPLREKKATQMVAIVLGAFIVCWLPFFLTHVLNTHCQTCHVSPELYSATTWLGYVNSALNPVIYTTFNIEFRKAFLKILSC
# Method: [^3H]-Spiperone Binding Assay at hD3 and hD4 recombinant receptors CHO cells transiently transfected with human dopamine type 3 or 4 receptors (CHO-hD3 or CHO-hD4, respectively), were re-suspended in 20 mM HEPES, 2 mM EDTA (pH 7.4), homogenised and centrifuged at 40,000 g (20 min, 4° C.). After re-suspension, homogenization and centrifugation as above, the final pellet was re-suspended in 20 mM HEPES, 100 mM NaCl, 10 mM MgCl2, 1 mM EDTA (pH 7.4) and aliquots were kept at −80° C. [^3H]-Spiperone Binding experiments were performed in 96 deep-well polypropylene plates in 50 mM Tris/HCl, 120 mM NaCl, 5 mM KCl, 5 mM MgCl2 (pH 7.4). Compounds of invention were serially diluted in DMSO at 100 fold final concentrations in the assay (1% DMSO final in the assay). Displacement was performed in the presence of 0.3 nM [^3H]-Spiperone. The reaction was initiated by the addition of membrane suspension (4 μg and 12 μg of protein for CHO-hD3- and CHO-hD4 membranes, respectively) and lasted for 90 or 100 min (for hD3 or hD4 membranes, respectively) at 23° C. in a final volume of 500 μl. Non specific binding (NSB) was determined in the presence of 1 μM Spiperone. The binding reaction was stopped by rapid filtration through GF/B filterplates pre-soaked in 0.5% polyetylenimmine (PEI) using a Packard cell harvester. After washing with ice-cold 0.9% NaCl, the plate was left to dry before the addition of Microscint 20 ([…], PerkinElmer). Radioactivity was counted with a TopCount (PerkinElmer). Data were analysed by non-linear regression analysis using GraphPad Prism 5.0 (GraphPad Software). Saturation binding experiments were performed similar to the competition binding experiments using a radioligand concentrations ranging from 0.015 to 4.0 nM. […] Characterization of the human dopamine D3 receptor expressed in transfected cell lines.
# [3] = molecular target: T1, human dopamine receptor type 2, long variant (hD2L); experiment: [3H]-Spiperone binding assay at hD2 recombinant receptor (CHO-Gα16-hD2L membranes)
# Method: [^3H]-Spiperone Binding Assay at hD2 Recombinant Receptor CHO cells stably expressing human dopamine receptor type 2, long variant (hD2L), coupled to Gα16 protein (CHO-Gα16-hD2L) were re-suspended in 20 mM HEPES, 2 mM EDTA (pH 7.4), homogenised and centrifuged at 40,000 g (20 min, 4° C.). After re-suspension, homogenization and centrifugation as above, the final pellet was re-suspended in 20 mM HEPES, 100 mM NaCl, 10 mM MgCl2, 1 mM EDTA (pH 7.4) and aliquots were kept at −80° C. [^3H]-Spiperone Binding experiments were performed in 96 deep-well polypropylene plates in 50 mM Tris/HCl, 120 mM NaCl, 5 mM KCl, 5 mM MgCl2 (pH 7.4). […] Displacement was performed in the presence of 0.08 nM [^3H]-Spiperone. The reaction was initiated by the addition of membrane suspension (2 μg of protein for CHO-hD2 membranes) and lasted for 120 min at 23° C. in a final volume of 1000 μl. Non specific binding (NSB) was determined in the presence of 0.1 μM Spiperone. The binding reaction was stopped by rapid filtration through GF/B filterplates pre-soaked in 0.5% polyetylenimmine (PEI) using a Packard cell harvester. After washing with ice-cold 0.9% NaCl, the plate was left to dry before the addition of Microscint 20 (50 μl/well, PerkinElmer). Radioactivity was counted with a TopCount (PerkinElmer). […] Saturation binding experiments were performed similar to the competition binding experiments using a radioligand concentrations ranging from 0.011 to 3.0 nM. […] Is Clozapine selective for the dopamine D4 receptor? […] Real-time analysis of dopamine: antagonist interactions at recombinant human D2long receptor upon modulation of its activation state. Brit. J.
Compound,Ki [1] [µM],D3 p Ki [2],D2 p Ki [3],D2 fp Ki [1],Ki ([3]; read-out: D2 p Ki (converted)) [µM]
"Cc1ccc(C2CN(CCCSc3nnc(-c4ccc(-c5noc(C)n5)cc4)n3C)CCO2)cc1 (stereo not shown) [Example 37, 4-[3-({4-methyl-5-[4-(5-methyl-1,2,4-oxadiazol-3-yl)phenyl]-4H-1,2,4-triazol-3-yl}sulfanyl)propyl]-2-(4-methylphenyl)morpholine]",31.6,7.07,4.50,,
"Cc1ncoc1-c1nnc(SCCCN2CCO[C@H](c3ccc(C(F)(F)F)cc3)C2)n1C (single isomer, unassigned) [Example 9, (2R or 2S)-4-(3-{[4-methyl-5-(4-methyl-1,3-oxazol-5-yl)-4H-1,2,4-triazol-3-yl]sulfanyl)}propyl)-2-[4-(trifluoromethyl)phenyl]morpholine]",,,5.36,5.64,
"Cc1ncoc1-c1nnc(SCCCCN2CCO[C@H](c3ccc(C(F)(F)F)cc3)C2)n1C (single isomer, unassigned) [Example 6, (2R or 2S)-4-(4-{[4-methyl-5-(4-methyl-1,3-oxazol-5-yl)-4H-1,2,4-triazol-3-yl]sulfanyl}butyl)-2-[4-(trifluoromethyl)phenyl]morpholine]",,7.11,,<5,
"Cc1ncoc1-c1nnc(SCCCN2CCO[C@H](c3ccc(C(F)(F)F)cc3)C2)n1C (single isomer, unassigned) [Example 10, (2R or 2S)-4-(3-({[4-methyl-5-(4-methyl-1,3-oxazol-5-yl)-4H-1,2,4-triazol-3-yl]sulfanyl}propyl)-2-[4-(trifluoromethyl)phenyl]morpholine hydrochloride]",> 10,,,,11.7
"Cn1c(SCCCN2CCOC(c3ccc(C(F)(F)F)cc3)C2)nnc1-c1cccc(C(N)=O)c1 (stereo not shown) [Example 23, 3-{4-methyl-5-[(3-{2-[4-(trifluoromethyl)phenyl]morpholin-4-yl}propyl)sulfanyl]-4H-1,2,4-triazol-3-yl}benzamide]",,6.53,4.82,,

# Continued, in another order:
Ki [1] [µM],D3 p Ki [2],D2 p Ki [3],Compound,D2 fp Ki [1],Ki ([3]; read-out: D2 p Ki (converted)) [µM]
> 10,7.05,,"Cc1ncoc1-c1nnc(SCCCCN2CCOC(c3ccc(C(F)(F)F)cc3)C2)n1C (stereo not shown) [Example 4, 4-(4-{[4-methyl-5-(4-methyl-1,3-oxazol-5-yl)-4H-1,2,4-triazol-3-yl]sulfanyl}butyl)-2-[4-(trifluoromethyl)phenyl]morpholine]",,
> 10,6.37,,Cc1ncoc1-c1nnc(SCCCN2CCOC(c3ccc(F)cc3)C2)n1C (stereo not shown) [Example 1],,
,6.55,5.14,"Cn1c(SCCCN2CCOC(c3ccc(C(F)(F)F)cc3)C2)nnc1-c1nccs1 (stereo not shown) [Example 26, 4-(3-{[4-methyl-5-(1,3-thiazol-2-yl)-4H-1,2,4-triazol-3-yl]sulfanyl}propyl)-2-[4-(trifluoromethyl)phenyl]morpholine]",,
,6.56,,"Cc1ncoc1-c1nnc(SCCCN2CCOC(c3ccc(F)cc3)C2)n1C (single isomer, unassigned) [Example 3, (2R or 2S)-2-(4-fluorophenyl)-4-(3-({[4-methyl-5-(4-methyl-1,3-oxazol-5-yl)-4H-1,2,4-triazol-3-yl]sulfanyl}propyl)morpholine]",<5,
